The values below come from paper PMC9856672, “SGC-CAMKK2-1: A Chemical Probe for CAMKK2” (Cells, 2023).

The target in one assay is T1, ABL1-nonphosphorylated (Homo sapiens, UniProt P00519).
T1 construct: purchased Eurofins DiscoverX KINOMEscan
Put plainly: KINOMEscan 1 μM, ABL1-nonphosphorylated. In kind it is binding. To be noted: 1000 nM; Entrez ABL1; read-out: Percent Control. The text has this: (§1) Supplement cells-12-00287-s001.zip/File S2. KinomeScan data for the CAMKK2 probe and negative control.xlsx, sheet "SGC-CAMKK2-1" | column: Percent Control

A further assay deals with T2, PRKD2 (Homo sapiens, UniProt Q9BZL6).
T2 construct: purchased Eurofins DiscoverX KINOMEscan
Put plainly: DiscoverX KINOMEscan binding assay at 1 μM, PRKD2. To be noted: Compound Concentration 1000 nM, read-out: Percent Control.
Text: as §1

The next assay addresses T3, ROCK1 (Homo sapiens, UniProt Q13464).
T3 construct: purchased Eurofins DiscoverX KINOMEscan
As to the kind of experiment: DiscoverX KINOMEscan binding assay at 1 μM, ROCK1. As to conditions: Compound Concentration 1000 nM, read-out: Percent Control.
Text: as §1

The next assay has as its target T4, TNNI3K (Homo sapiens, UniProt Q59H18).
T4 construct: purchased Eurofins DiscoverX KINOMEscan
Put plainly: DiscoverX KINOMEscan binding assay at 1 μM, TNNI3K. To be noted: Compound Concentration 1000 nM, read-out: Percent Control.
Text: as §1

The next assay deals with T5, PIKFYVE (Homo sapiens, UniProt Q9Y2I7).
T5 construct: purchased Eurofins DiscoverX KINOMEscan
As to the kind of experiment: KINOMEscan 1 μM, PIKFYVE. In kind it is binding. To be noted: 1000 nM; Entrez PIKFYVE; read-out: Percent Control.
Text: as §1

Another assay addresses T6, MET(Y1235D) (Homo sapiens, UniProt P08581, Y1235D).
T6 construct: purchased Eurofins DiscoverX KINOMEscan
Put plainly: KINOMEscan 1 μM, MET(Y1235D). The assay is classed as binding. As to conditions: 1000 nM; Entrez MET; read-out: Percent Control.
Text: as §1

Another assay has as its target T7, IRAK3 (Homo sapiens, UniProt Q9Y616).
T7 construct: purchased Eurofins DiscoverX KINOMEscan
As to the kind of experiment: KINOMEscan 1 μM, IRAK3. The assay is classed as binding. To be noted: 1000 nM; Entrez IRAK3; read-out: Percent Control.
Text: as §1

A further assay addresses T8, ALK(C1156Y) (Homo sapiens, UniProt Q9UM73, C1156Y).
T8 construct: purchased Eurofins DiscoverX KINOMEscan
Put plainly: KINOMEscan 1 μM, ALK(C1156Y). The assay is classed as binding. To be noted: 1000 nM; Entrez ALK; read-out: Percent Control.
Text: as §1

The target in the next assay is T9, CLK2 (Homo sapiens, UniProt P49760).
T9 construct: purchased Eurofins DiscoverX KINOMEscan
Put plainly: KINOMEscan 1 μM, CLK2. As to conditions: 1000 nM; Entrez CLK2; read-out: Percent Control. In kind it is binding.
Text: as §1

The target in another assay is T10, ACVR1B (Homo sapiens, UniProt P36896).
T10 construct: purchased Eurofins DiscoverX KINOMEscan
As to the kind of experiment: KINOMEscan 1 μM, ACVR1B. In kind it is binding. To be noted: 1000 nM; Entrez ACVR1B; read-out: Percent Control.
Text: as §1

Assay [1] has as its target T11, PIM1 (Homo sapiens, UniProt P11309).
T11 construct: purchased Eurofins DiscoverX KINOMEscan
Put plainly: KINOMEscan 1 μM, PIM1. As to conditions: 1000 nM; Entrez PIM1; read-out: Percent Control. In kind it is binding.
Text: as §1

For another assay, the target named is T12, MET(M1250T) (Homo sapiens, UniProt P08581, M1250T).
T12 construct: purchased Eurofins DiscoverX KINOMEscan
As to the kind of experiment: KINOMEscan 1 μM, MET(M1250T). The assay is classed as binding. To be noted: 1000 nM; Entrez MET; read-out: Percent Control.
Text: as §1

Assay [2] deals with T13, EPHA4 (Homo sapiens, UniProt P54764).
T13 construct: purchased Eurofins DiscoverX KINOMEscan
Put plainly: KINOMEscan 1 μM, EPHA4. In kind it is binding. As to conditions: 1000 nM; Entrez EPHA4; read-out: Percent Control.
Text: as §1

Another assay concerns the target T14, SGK3 (Homo sapiens, UniProt Q96BR1).
T14 construct: purchased Eurofins DiscoverX KINOMEscan
As to the kind of experiment: DiscoverX KINOMEscan binding assay at 1 μM, SGK3. To be noted: Compound Concentration 1000 nM, read-out: Percent Control.
Text: as §1

For a further assay, the target named is T15, BMPR2 (Homo sapiens, UniProt Q13873).
T15 construct: purchased Eurofins DiscoverX KINOMEscan
Put plainly: KINOMEscan 1 μM, BMPR2. The assay is classed as binding. As to conditions: 1000 nM; Entrez BMPR2; read-out: Percent Control.
Text: as §1

In another assay the target is T16, ERK1 (Homo sapiens, UniProt P27361).
T16 construct: purchased Eurofins DiscoverX KINOMEscan
Put plainly: KINOMEscan 1 μM, ERK1. In kind it is binding. To be noted: 1000 nM; Entrez MAPK3; read-out: Percent Control.
Text: as §1

A further assay addresses T17, RIPK4 (Homo sapiens, UniProt P57078).
T17 construct: purchased Eurofins DiscoverX KINOMEscan
As to the kind of experiment: DiscoverX KINOMEscan binding assay at 1 μM, RIPK4. To be noted: Compound Concentration 1000 nM, read-out: Percent Control.
Text: as §1

For a further assay, the target named is T18, TRKA (Homo sapiens, UniProt P04629).
T18 construct: purchased Eurofins DiscoverX KINOMEscan
As to the kind of experiment: DiscoverX KINOMEscan binding assay at 1 μM, TRKA. As to conditions: TRKA (NTRK1); Compound Concentration 1000 nM; read-out: Percent Control.
Text: as §1

For a further assay, the target named is T19, PLK2 (Homo sapiens, UniProt Q9NYY3).
T19 construct: purchased Eurofins DiscoverX KINOMEscan
Put plainly: DiscoverX KINOMEscan binding assay at 1 μM, PLK2. To be noted: Compound Concentration 1000 nM, read-out: Percent Control.
Text: as §1

The target in another assay is T20, IRAK4 (Homo sapiens, UniProt Q9NWZ3).
T20 construct: purchased Eurofins DiscoverX KINOMEscan
Put plainly: KINOMEscan 1 μM, IRAK4. In kind it is binding. As to conditions: 1000 nM; Entrez IRAK4; read-out: Percent Control.
Text: as §1

The target in a further assay is T21, MEK3 (Homo sapiens, UniProt P46734).
T21 construct: purchased Eurofins DiscoverX KINOMEscan
Put plainly: KINOMEscan 1 μM, MEK3. In kind it is binding. To be noted: 1000 nM; Entrez MAP2K3; read-out: Percent Control.
Text: as §1

Another assay addresses T22, MKNK1 (Homo sapiens, UniProt Q9BUB5).
T22 construct: purchased Eurofins DiscoverX KINOMEscan
Put plainly: KINOMEscan 1 μM, MKNK1. In kind it is binding. To be noted: 1000 nM; Entrez MKNK1; read-out: Percent Control.
Text: as §1

The target of another assay is T23, HUNK (Homo sapiens, UniProt P57058).
T23 construct: purchased Eurofins DiscoverX KINOMEscan
Put plainly: KINOMEscan 1 μM, HUNK. The assay is classed as binding. As to conditions: 1000 nM; Entrez HUNK; read-out: Percent Control.
Text: as §1

The target of another assay is T24, CAMK2A (Homo sapiens, UniProt Q9UQM7).
T24 construct: purchased Eurofins DiscoverX KINOMEscan
As to the kind of experiment: KINOMEscan at 1 μM, CAMK2A. The assay is classed as binding. To be noted: 1000 nM, read-out: Percent Control. The text has this:
(§2) Supplement cells-12-00287-s001.zip/File S2. KinomeScan data for the CAMKK2 probe and negative control.xlsx, sheet "SGC-CAMKK2-1N" | column: Percent Control

Another assay addresses T25, CDKL1 (Homo sapiens, UniProt Q00532).
T25 construct: purchased Eurofins DiscoverX KINOMEscan
As to the kind of experiment: KINOMEscan at 1 μM, CDKL1. As to conditions: 1000 nM, read-out: Percent Control. In kind it is binding.
Text: as §2

The target of the next assay is T26, PAK2 (Homo sapiens, UniProt Q13177).
T26 construct: purchased Eurofins DiscoverX KINOMEscan
As to the kind of experiment: KINOMEscan at 1 μM, PAK2. In kind it is binding. As to conditions: 1000 nM, read-out: Percent Control.
Text: as §2

For a further assay, the target named is T27, LIMK1 (Homo sapiens, UniProt P53667).
T27 construct: purchased Eurofins DiscoverX KINOMEscan
Put plainly: KINOMEscan at 1 μM, LIMK1. In kind it is binding. As to conditions: 1000 nM, read-out: Percent Control.
Text: as §2

The target in another assay is T28, PIK3CA(E545K) (Homo sapiens, UniProt P42336, E545K).
T28 construct: purchased Eurofins DiscoverX KINOMEscan
As to the kind of experiment: KINOMEscan at 1 μM, PIK3CA(E545K). In kind it is binding. As to conditions: 1000 nM, read-out: Percent Control.
Text: as §2

Another assay concerns the target T29, FGFR1 (Homo sapiens, UniProt P11362).
T29 construct: purchased Eurofins DiscoverX KINOMEscan
As to the kind of experiment: KINOMEscan binding assay at 1 μM, FGFR1. As to conditions: Compound Concentration 1000 nM; read-out: Percent Control.
Text: as §2

Another assay deals with T30, PKN1 (Homo sapiens, UniProt Q16512).
T30 construct: purchased Eurofins DiscoverX KINOMEscan
As to the kind of experiment: KINOMEscan binding assay at 1 μM, PKN1. As to conditions: Compound Concentration 1000 nM; read-out: Percent Control.
Text: as §2

The target of assay [3] is T11, PIM1. Put plainly: KINOMEscan at 1 μM, PIM1. As to conditions: 1000 nM, read-out: Percent Control. The assay is classed as binding.
Text: as §2

For assay [4], the target named is T13, EPHA4. Put plainly: KINOMEscan at 1 μM, EPHA4. The assay is classed as binding. To be noted: 1000 nM, read-out: Percent Control.
Text: as §2

For another assay, the target named is T31, MEK6 (Homo sapiens, UniProt P52564).
T31 construct: purchased Eurofins DiscoverX KINOMEscan
Put plainly: KINOMEscan at 1 μM, MEK6. In kind it is binding. To be noted: 1000 nM, read-out: Percent Control.
Text: as §2

T11 sequence (P11309 whole entry): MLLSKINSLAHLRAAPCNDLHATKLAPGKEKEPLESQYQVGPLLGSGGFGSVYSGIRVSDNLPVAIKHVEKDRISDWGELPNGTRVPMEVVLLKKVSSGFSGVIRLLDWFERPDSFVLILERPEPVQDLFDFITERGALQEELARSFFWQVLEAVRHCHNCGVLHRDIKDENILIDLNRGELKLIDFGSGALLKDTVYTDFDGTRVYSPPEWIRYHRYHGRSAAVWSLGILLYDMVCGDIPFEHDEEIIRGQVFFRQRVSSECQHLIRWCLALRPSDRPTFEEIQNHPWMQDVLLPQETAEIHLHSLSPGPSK
T13 sequence (P54764 20-986): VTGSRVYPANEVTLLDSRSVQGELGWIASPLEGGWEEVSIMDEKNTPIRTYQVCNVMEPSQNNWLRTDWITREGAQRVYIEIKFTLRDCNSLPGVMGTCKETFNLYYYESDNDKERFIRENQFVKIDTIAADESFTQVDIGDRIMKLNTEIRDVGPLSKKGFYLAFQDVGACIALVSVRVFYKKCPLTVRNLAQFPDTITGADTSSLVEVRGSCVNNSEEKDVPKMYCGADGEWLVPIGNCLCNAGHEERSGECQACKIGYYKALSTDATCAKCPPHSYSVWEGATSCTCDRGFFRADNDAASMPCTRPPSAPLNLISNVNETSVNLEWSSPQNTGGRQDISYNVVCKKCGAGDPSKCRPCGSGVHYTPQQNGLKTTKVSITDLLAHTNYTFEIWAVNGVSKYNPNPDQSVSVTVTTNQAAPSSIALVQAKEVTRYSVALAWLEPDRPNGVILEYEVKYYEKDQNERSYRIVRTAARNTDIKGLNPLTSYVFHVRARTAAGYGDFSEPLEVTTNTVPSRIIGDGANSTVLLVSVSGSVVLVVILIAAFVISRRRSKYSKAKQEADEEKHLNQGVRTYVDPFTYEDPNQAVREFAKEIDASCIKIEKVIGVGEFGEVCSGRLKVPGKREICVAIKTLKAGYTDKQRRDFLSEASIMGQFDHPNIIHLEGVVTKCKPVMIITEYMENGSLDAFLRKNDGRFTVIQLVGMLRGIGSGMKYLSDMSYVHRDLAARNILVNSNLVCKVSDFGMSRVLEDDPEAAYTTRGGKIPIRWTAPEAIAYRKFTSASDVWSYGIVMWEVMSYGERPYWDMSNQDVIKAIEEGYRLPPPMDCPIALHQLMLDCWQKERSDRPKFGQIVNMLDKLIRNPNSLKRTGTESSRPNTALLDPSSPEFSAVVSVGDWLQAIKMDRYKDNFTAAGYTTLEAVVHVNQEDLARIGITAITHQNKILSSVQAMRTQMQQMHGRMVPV
T31 sequence (P52564 whole entry): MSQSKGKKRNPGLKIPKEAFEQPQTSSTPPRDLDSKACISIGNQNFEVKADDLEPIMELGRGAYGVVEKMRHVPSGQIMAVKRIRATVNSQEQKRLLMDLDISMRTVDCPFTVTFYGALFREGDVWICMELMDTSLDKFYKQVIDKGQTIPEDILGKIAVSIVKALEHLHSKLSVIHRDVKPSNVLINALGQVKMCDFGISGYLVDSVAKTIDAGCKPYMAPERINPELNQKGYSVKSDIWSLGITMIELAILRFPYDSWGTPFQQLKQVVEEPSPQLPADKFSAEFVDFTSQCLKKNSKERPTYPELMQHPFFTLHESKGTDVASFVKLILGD
T3 sequence (Q13464 whole entry): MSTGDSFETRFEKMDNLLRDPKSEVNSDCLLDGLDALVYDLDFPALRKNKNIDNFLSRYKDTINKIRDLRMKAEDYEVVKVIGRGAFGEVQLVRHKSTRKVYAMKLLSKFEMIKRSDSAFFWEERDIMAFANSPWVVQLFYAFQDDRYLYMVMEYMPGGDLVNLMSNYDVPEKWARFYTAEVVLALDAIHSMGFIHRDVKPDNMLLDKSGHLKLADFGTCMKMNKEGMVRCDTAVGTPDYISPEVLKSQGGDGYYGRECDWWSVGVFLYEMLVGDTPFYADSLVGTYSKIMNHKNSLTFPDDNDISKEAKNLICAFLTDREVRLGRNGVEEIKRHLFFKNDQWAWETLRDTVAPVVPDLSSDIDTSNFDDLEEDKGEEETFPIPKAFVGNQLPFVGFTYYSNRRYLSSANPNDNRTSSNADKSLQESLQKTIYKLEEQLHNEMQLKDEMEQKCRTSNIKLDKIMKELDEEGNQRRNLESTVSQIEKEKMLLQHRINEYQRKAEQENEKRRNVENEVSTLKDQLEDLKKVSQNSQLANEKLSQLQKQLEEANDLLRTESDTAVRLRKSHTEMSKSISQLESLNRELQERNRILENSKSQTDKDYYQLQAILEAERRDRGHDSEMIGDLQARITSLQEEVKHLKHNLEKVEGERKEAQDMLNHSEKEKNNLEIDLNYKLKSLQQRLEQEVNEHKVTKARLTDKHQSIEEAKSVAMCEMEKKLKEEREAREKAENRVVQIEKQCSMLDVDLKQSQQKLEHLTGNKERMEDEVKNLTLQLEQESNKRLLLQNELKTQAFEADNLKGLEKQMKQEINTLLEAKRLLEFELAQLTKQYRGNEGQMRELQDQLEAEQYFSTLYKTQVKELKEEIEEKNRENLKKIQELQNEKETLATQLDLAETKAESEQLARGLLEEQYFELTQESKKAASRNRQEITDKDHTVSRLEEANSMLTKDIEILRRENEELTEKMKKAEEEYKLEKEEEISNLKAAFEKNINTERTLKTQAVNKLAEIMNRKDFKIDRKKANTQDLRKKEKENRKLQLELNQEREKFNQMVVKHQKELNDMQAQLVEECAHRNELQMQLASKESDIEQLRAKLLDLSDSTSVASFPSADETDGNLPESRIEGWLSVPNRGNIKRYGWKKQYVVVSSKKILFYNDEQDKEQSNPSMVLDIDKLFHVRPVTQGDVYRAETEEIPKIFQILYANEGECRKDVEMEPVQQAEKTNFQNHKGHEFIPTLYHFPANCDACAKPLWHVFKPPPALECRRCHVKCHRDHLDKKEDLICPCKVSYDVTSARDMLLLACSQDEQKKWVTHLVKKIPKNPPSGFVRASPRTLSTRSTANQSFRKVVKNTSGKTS
T17 sequence (P57078 whole entry): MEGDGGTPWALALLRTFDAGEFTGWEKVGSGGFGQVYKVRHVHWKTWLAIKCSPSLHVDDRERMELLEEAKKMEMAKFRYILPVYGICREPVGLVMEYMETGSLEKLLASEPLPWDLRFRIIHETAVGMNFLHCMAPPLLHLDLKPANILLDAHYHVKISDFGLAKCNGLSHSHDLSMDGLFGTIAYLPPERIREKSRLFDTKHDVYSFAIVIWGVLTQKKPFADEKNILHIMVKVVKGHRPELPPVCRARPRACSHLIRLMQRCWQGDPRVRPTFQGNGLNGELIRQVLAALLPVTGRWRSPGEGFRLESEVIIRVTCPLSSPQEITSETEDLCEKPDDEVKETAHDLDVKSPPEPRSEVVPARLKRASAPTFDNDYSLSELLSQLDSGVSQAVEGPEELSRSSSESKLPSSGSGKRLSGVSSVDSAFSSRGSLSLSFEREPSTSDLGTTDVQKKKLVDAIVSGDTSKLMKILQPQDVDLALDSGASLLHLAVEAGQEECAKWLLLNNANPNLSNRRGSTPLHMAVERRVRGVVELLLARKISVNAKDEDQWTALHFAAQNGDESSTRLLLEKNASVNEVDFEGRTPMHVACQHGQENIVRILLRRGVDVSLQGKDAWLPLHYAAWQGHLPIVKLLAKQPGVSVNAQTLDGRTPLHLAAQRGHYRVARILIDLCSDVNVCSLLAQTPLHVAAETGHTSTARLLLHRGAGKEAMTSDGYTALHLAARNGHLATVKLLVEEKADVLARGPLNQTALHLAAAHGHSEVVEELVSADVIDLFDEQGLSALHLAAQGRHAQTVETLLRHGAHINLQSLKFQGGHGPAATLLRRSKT
T30 sequence (Q16512 whole entry): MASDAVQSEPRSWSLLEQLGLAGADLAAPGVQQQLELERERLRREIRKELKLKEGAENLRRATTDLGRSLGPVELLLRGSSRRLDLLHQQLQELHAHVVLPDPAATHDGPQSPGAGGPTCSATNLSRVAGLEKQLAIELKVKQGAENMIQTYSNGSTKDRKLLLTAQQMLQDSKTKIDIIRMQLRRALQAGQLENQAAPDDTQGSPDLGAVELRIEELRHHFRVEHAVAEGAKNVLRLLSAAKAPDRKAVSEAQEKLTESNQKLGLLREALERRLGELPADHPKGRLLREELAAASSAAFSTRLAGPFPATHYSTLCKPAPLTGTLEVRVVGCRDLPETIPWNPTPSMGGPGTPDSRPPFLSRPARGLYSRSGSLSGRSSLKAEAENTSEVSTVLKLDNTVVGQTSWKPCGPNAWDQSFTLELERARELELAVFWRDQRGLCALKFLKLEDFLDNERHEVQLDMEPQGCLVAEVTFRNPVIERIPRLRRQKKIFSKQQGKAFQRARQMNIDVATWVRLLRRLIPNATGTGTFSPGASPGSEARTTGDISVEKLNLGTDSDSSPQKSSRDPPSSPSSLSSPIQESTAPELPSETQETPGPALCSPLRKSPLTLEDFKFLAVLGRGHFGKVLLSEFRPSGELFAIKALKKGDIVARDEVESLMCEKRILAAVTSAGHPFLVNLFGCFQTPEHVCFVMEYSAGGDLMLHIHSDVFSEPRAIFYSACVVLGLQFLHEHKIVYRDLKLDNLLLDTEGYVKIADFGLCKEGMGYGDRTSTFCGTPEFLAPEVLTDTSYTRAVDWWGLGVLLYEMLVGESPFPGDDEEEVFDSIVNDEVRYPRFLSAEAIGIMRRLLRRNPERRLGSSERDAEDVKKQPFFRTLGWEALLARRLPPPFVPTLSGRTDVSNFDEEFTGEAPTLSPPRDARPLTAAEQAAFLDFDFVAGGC

In the case of `Cc1cccc(-c2cnc3occ(-c4ccc(C(=O)O)c(C5CCCC5)c4)c3c2)c1` [SGC-CAMKK2-1 (YL-36)], the remaining binding at 1 µM at ABL1-nonphosphorylated came to 95%; on PRKD2, 100%; at ROCK1, 100%; on TNNI3K it was 100%; at PIKFYVE it was 80%; at MET(Y1235D), 98%. The remaining binding at 1 µM on IRAK3 was found to be 88%; at ALK(C1156Y) it was 100%; on CLK2, 79%; on ACVR1B, 100%; on PIM1 [1], 76%; on MET(M1250T), 100%. Besides, the remaining binding at 1 µM worked out at 90% at EPHA4 [2]; 100% at SGK3; 100% at BMPR2; 100% at ERK1; 100% at RIPK4; 100% on TRKA. The remaining binding at 1 µM is 100% at PLK2; 100% on IRAK4; 91% at MEK3; 100% on MKNK1; 94% at HUNK.

Consider `O=C(O)c1ccc(-c2coc3ncc(-c4ccccc4)cc23)cc1Cl` [SGC-CAMKK2-1N (UNC-YL-83)], for which the remaining binding at 1 µM at CAMK2A stood at 65%; on CDKL1, 72%; on PAK2, 78%; on LIMK1, 88%; on PIK3CA(E545K), 93%; at FGFR1, 100%. Besides, the remaining binding at 1 µM stood at 100% at PKN1, 75% on PIM1 [3], 86% on EPHA4 [4] and 46% on MEK6.
